Source: US7094909B2, “HIV protease inhibitors, compositions containing the same, their pharmaceutical uses and materials for their synthesis” (priority 2001, dated 2006)
pEC50: −log10 of the molar value.

Key:
461, 84V, 90M virus = test: Phenotypic susceptibility assay at Virologic, Inc.; assay type: cell-based, HIV-1; conditions: Human immunodeficiency virus 1, read-out: EC50 or IC50 (mM), values with asterisk (IC50)
Protocol: Compounds were tested in phenotypic susceptibility assays at Virologic, Inc., (See Petropoulos C. J., Parkin N. T., Limoli K. L., Lie Y. S., Wrin T., Huang W., Tian H., Smith D., Winslow G. A., Capon D J, Whitcomb J M. 2000, “A novel phenotypic drug susceptibility assay for human immunodeficiency virus type 1,” Antimicrob Agents Chemother 44(4):920–928) or using the assay described here. MT-2 cells were infected with either HIV-1 NL4-3 or HIV-1 NL4-3([…]) and incubated in the presence of serial 0.5 log dilutions of test compounds. Three days later, culture supernatants were collected and virus production, as determined by p24 ELISA, was assayed. Percent inhibition was calculated as p24 concentration in compound-treated samples as compared to infected, compound-free controls. Inhibition of viral replication is determined by measuring reduction in HIV p24 present in the culture supernatant, using a Beckman-Coulter p24HIV-1 Ag EIA kit and following the supplied protocol. Absorbance is read on a MRX microplate reader (Dynex Technologies). The EC50 was calculated as the concentration of compound that effected a decrease in the p24 production by infected, compound-treated cells to 50% of that produced by infected, compound-free cells.

[1] = target: T1, HIV-1 protease (Q7S mutant form) (Human immunodeficiency virus type 1 group M subtype B, UniProt P04585, Q495S); test: HIV-1 Protease RET assay; assay type: biochemical; conditions: Ave. Ki (nM), RET assay, Q7S enzyme, Morrison tight binding fit
T1 construct: made in house
In short: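 Ki values fitted with the Morrison tight-binding equation from steady-state RET cleavage (ex 340, em 490 nm) of 5 μM RE(EDANS)SQNYPIVQK(DABCYL)R. Buffer pH 4.8 acetate, 1M NaCl, 5 mM DTT, 1 mg/ml BSA, 10% DMSO; 2 nM Q7S mutant dimer, 37 °C, 12 min.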

[2] = test system: HIV-1 (HIV-1 RF, HIV-1 NL4-3) in CEM-SS / MT-2 cells; test: Cytopathic effect (CPE) inhibition assay (XTT/MTT dye reduction); assay type: cell-based; conditions: Human immunodeficiency virus 1, NL43; read-out: Ave CPE EC50
In short: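 Readout is XTT reduction (A450, 4 h) after six days of culturing virus-infected (moi 0.025–0.819) or mock-infected CEM-SS/MT-2 cells, 2×10^4 per well, with half-log compound series. Antiviral EC50 and cytotoxic CC50 are relative to uninfected compound-free cells. Therapeutic index is CC50 divided by EC50.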

| SMILES | melting point [°C] | IC50 (461, 84V, 90M virus) [nM] | Ki [1] [nM] | pEC50 [2] |
| --- | --- | --- | --- | --- |
| Cc1c(O)cccc1C(=O)N[C@@H](Cc1ccccc1)[C@H](O)C(=O)N1CSC(C)(C)[C@H]1C(=O)N[C@H]1CCOc2ccccc21 [Example A17, (R)-3-((2S,3S)-2-Hydroxy-3-{[1-(3-hydroxy-2-methyl-phenyl)-methanoyl]-amino}-4-phenyl-butanoyl)-5,5-dimethyl-thiazolidine-4-carboxylic acid (S)-chroman-4-ylamide] | 135 to 136 | 49 | < 0.1 | 7.62 |
| Cc1c(O)cccc1C(=O)N[C@@H](Cc1ccccc1)[C@H](O)C(=O)N1CSC(C)(C)[C@H]1C(=O)N[C@@H]1C=CCCC1 [Example A32, (R)-3-((2S,3S)-2-Hydroxy-3-{[1-(3-hydroxy-2-methyl-phenyl)-methanoyl]-amino}-4-phenyl-butanoyl)-5,5-dimethyl-thiazolidine-4-carboxylic acid (S)-cyclohex-2-enylamide] | 177 to 179 | 55 | < 0.1 | 7.92 |
| Cc1c(O)cccc1C(=O)N[C@@H](Cc1ccccc1)[C@H](O)C(=O)N1CSC(C)(C)[C@H]1C(=O)N[C@H]1CCc2ccccc21 [Example A35, (R)-3-((2S,3S)-2-Hydroxy-3-{[1-(3-hydroxy-2-methyl-phenyl)-methanoyl]-amino}-4-phenyl-butanoyl)-5,5-dimethyl-thiazolidine-4-carboxylic acid (S)-indan-1-ylamide] | 204 to 206 | 41 | < 0.1 | 7.80 |
| Cc1cccc(C)c1OCC(=O)N[C@@H](Cc1ccccc1)[C@H](O)C(=O)N1CSC(C)(C)[C@H]1C(=O)N[C@H]1CCOc2ccccc21 [Example B30, (R)-3-{(2S,3S)-3-[2-(2,6-Dimethyl-phenoxy)-ethanoylamino]-2-hydroxy-4-phenyl-butanoyl}-5,5-dimethyl-thiazolidine-4-carboxylic acid (S)-chroman-4-ylamide] | 105 to 107 | – | 0.21 | 6.35 |
| CC1(C)SCN(C(=O)[C@@H](O)[C@H](Cc2ccccc2)NC(=O)O[C@H]2CCOC2)[C@@H]1C(=O)N[C@H]1CCCc2ccccc21 [Example B33, ((1S,2S)-1-Benzyl-3-{(R)-5,5-dimethyl-4-[(S)-(1,2,3,4-tetrahydro-naphthalen-1-yl)carbamoyl]-thiazolidin-3-yl}-2-hydroxy-3-oxo-propyl)-carbamic acid (S)-(tetrahydro-furan-3-yl) ester] | 103 to 105 | 604 | < 0.1 | 7.35 |
